Experimental data taken from a compilation of properties of binary mixtures (doi:10.1016/j.molliq.2022.120022).

Test: xn = mol fraction of the nth substance listed
Conditions: 100 kPa

C[N+](C)(C)CCO.NCC(=O)[O-] + O
Conditions | speed of sound [m/s] | viscosity [mPa·s]
298.15 K, x1 = 0.1 | 1927.4 | 5.83
298.15 K, x1 = 0.2004 | 2082.9 | 23.73
298.15 K, x1 = 0.3 | 2134.5 | 56.96
298.15 K, x1 = 0.3996 | 2152.4 | 99
298.15 K, x1 = 0.5004 | 2156.2 | 154.4
298.15 K, x1 = 0.6004 | 2156 | 216
298.15 K, x1 = 0.6966 | 2153.1 | 274
298.15 K, x1 = 0.8014 | 2151.8 | 348
298.15 K, x1 = 0.8996 | 2146 | 420
303.15 K, x1 = 0.1 | 1922.7 | 5.01
303.15 K, x1 = 0.2004 | 2073.3 | 19.44
303.15 K, x1 = 0.3 | 2122.9 | 45.62
303.15 K, x1 = 0.3996 | 2140.5 | 77.3
303.15 K, x1 = 0.5004 | 2144.8 | 115.5
303.15 K, x1 = 0.6004 | 2143.4 | 160.8
303.15 K, x1 = 0.8014 | 2136.2 | 257
303.15 K, x1 = 0.8996 | 2133.2 | 306
303.15 K, x1 = 1 | 2129.1 | 363
308.15 K, x1 = 0.2004 | 2063.4 | 16.15
308.15 K, x1 = 0.3 | 2111.5 | 37.06
308.15 K, x1 = 0.5004 | 2132.2 | 89.6
308.15 K, x1 = 0.6004 | 2130.3 | 122.8
308.15 K, x1 = 0.6966 | 2127.8 | 153.5
308.15 K, x1 = 0.8014 | 2125.2 | 191.6
308.15 K, x1 = 0.8996 | 2120.1 | 227
308.15 K, x1 = 1 | 2116 | 264
313.15 K, x1 = 0.1 | 1911.9 | 3.8
313.15 K, x1 = 0.2004 | 2053.2 | 13.57
313.15 K, x1 = 0.3 | 2099.8 | 30.58
313.15 K, x1 = 0.6004 | 2118 | 95.3
313.15 K, x1 = 0.6966 | 2115 | 118.6
313.15 K, x1 = 0.8014 | 2112.1 | 147.4
313.15 K, x1 = 0.8996 | 2107.2 | 172.7
313.15 K, x1 = 1 | 2103.5 | 201
318.15 K, x1 = 0.2004 | 2043 | 11.51
318.15 K, x1 = 0.6004 | 2105.6 | 75.6
318.15 K, x1 = 0.6966 | 2102.3 | 92.7
318.15 K, x1 = 0.8014 | 2098.7 | 114.4
318.15 K, x1 = 0.8996 | 2094.2 | 134.5
323.15 K, x1 = 0.1 | 1899.4 | 2.97
323.15 K, x1 = 0.2004 | 2032.2 | 9.83
323.15 K, x1 = 0.3 | 2076.6 | 21.79
323.15 K, x1 = 0.3996 | 2091.4 | 34.59
323.15 K, x1 = 0.5004 | 2094.9 | 46.6
323.15 K, x1 = 0.6004 | 2092.8 | 60.8
323.15 K, x1 = 0.6966 | 2089.9 | 74.1
323.15 K, x1 = 0.8014 | 2086.3 | 91
323.15 K, x1 = 0.8996 | 2081.8 | 105.2
323.15 K, x1 = 1 | 2078.3 | 121.1

O + C[N+](C)(C)CCO.NCC(=O)[O-]
x2 = 0
Conditions | speed of sound [m/s] | viscosity [mPa·s]
298.15 K | – | 0.89
303.15 K | – | 0.8
308.15 K | – | 0.72
313.15 K | 1529 | 0.66
318.15 K | – | 0.61
323.15 K | – | 0.56
